Experimental data from US7902187B2, “6-substituted 2-(benzimidazolyl)purine and purinone derivatives for immunosuppression” (Wyeth LLC, priority 2006, dated 2011).
pIC50: −log10 of the molar value. Where two headings read alike, the source gives them in different places.

Tests used:
Jak3 [1] = biological target: T1, Jak3 (Homo sapiens, UniProt P52333); conditions: leukemia cells; cited from earlier work
T1 construct: host or cells: leukemia cells (not specified)
T1 sequence (P52333 1-1124): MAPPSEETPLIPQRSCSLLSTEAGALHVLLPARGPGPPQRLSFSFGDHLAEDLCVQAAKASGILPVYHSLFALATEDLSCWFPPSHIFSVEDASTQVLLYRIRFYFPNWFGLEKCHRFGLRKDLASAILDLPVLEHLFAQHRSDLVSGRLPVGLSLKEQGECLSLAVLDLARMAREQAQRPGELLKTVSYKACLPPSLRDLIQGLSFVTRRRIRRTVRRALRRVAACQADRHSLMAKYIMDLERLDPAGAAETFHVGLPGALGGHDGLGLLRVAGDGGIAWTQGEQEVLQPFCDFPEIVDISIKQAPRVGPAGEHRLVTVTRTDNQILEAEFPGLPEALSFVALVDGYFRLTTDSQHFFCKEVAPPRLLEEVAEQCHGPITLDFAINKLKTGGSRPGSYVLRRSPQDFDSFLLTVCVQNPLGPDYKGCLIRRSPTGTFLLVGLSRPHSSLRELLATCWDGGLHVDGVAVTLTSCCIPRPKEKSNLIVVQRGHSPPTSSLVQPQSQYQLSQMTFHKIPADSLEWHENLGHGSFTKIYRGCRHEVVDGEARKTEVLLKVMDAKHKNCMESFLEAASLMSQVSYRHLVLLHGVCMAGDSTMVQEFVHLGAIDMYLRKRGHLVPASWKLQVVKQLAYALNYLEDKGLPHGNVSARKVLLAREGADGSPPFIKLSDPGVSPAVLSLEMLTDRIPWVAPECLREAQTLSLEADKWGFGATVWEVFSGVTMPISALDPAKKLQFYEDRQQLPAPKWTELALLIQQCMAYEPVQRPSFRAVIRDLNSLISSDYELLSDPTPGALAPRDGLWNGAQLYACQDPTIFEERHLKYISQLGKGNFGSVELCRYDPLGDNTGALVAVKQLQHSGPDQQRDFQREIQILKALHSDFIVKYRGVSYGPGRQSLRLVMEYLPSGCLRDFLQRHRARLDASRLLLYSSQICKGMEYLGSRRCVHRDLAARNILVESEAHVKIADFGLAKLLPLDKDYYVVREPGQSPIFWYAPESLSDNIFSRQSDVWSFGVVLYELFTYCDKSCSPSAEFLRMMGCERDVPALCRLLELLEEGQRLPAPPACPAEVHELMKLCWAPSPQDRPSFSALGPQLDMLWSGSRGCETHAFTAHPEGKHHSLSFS

[2] = NOD mouse; cited from earlier work
[3] = in vivo; cited from earlier work
[4] = primate model of kidney transplantation; cited from earlier work
[5] = murine model of heart transplantation; cited from earlier work
Jak3 [6] = biological target: T2, Jak3 (Homo sapiens, UniProt P52333); assay: Jak3 Kinase Assay (HTRF); type: biochemical; conditions: GST-Jak3 catalytic domain, 1 μM ATP, 60-min incubation; read-out: Jak3 Kinase, IC50 representation
T2 construct: A fragment encoding the catalytic domain of Jak3 (508aa to 1124aa) was ligated with GST at 5′ end; made in house; host or cells: Sf9 insect cells (baculovirus, pFastBac 1)
T2 sequence (P52333 508-1124): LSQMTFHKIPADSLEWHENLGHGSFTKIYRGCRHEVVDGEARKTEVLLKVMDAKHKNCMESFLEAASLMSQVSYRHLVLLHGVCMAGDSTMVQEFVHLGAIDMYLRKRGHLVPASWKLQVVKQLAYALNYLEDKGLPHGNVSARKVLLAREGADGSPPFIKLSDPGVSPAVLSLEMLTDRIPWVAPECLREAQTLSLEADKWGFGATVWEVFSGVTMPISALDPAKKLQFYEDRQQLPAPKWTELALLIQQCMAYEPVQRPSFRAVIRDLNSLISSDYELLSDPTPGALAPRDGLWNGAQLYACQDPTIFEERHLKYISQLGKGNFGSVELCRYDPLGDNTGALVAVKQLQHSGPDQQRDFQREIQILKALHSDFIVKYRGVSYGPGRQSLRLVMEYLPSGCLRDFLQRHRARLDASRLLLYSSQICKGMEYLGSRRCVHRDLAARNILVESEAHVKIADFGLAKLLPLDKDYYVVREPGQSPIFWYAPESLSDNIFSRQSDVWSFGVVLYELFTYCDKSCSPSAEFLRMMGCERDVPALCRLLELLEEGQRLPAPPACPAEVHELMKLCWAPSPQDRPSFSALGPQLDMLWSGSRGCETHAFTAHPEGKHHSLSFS
Method: Human Jak3 cDNA was amplified by PCR. A fragment encoding the catalytic domain of Jak3 (508aa to 1124aa) was ligated with GST at 5′ end. This fused GST-Jak3 DNA fragment was cloned into the EcoRI site of the donor plasmid pFastBac 1 (Life Technologies #10359-016). The transformation, transposition, and transfection of insect cells (Sf9) were performed according to the manufacture's instructions. The cell lysate containing recombinant GST-Jak3 was used in the kinase assay. Anti-GST antibody (10 μg/ml, Sigma #G1417) was coated onto a 384-well plate at 4° C. overnight. Cell lysate containing GST-Jak3 (1:100 dilution) was added to the anti-GST coated plates, and GST-Jak3 was captured by immobilized anti-GST antibody. Testing compounds and substrate mix (50 mM HEPES, pH 7, 0.5 mM Na3VO4, 25 mM MgCl2, 1 mM DTT, 0.005% BSA, 1 μM ATP, and 4.5 μg/ml biotinyl poly-Glu,Ala,Tyr) were added to the plate to initiate the reaction. After a 60-min incubation, the reaction was stopped by 4 mM EDTA, and phosphorylation of biotinyl poly-Glu,Ala,Tyr was detected using 17 μg/ml Cy5-streptavidin (Amersham, #PA92005) and 2.7 μg/ml Europium-conjugated anti-phosphotyrosine antibody (PerkinElmer #AD0069) using homogeneous time-resolved fluorescence (HTRF) technology.

COc1cc2ncnc(Nc3ccc(O)c(Br)c3)c2cc1OC [WHI-P154]
selectivity of Jak3 inhibition (Jak3 [1]): selective inhibitors of Jak3

COc1cc2ncnc(Nc3ccc(O)cc3)c2cc1OC [JANEX-1]
spontaneous autoimmune diabetes development [2]: prevent spontaneous autoimmune diabetes development
severity of GVHD [3]: attenuate the severity of GVHD
selectivity of Jak3 inhibition (Jak3 [1]): selective inhibitors of Jak3

C[C@@H]1CCN(C(=O)CC#N)C[C@@H]1N(C)c1ncnc2[nH]ccc12 [CP-690,550]
animal survival [4]: prolong animal survival
animal survival [5]: prolong animal survival

Cn1c(=O)n([C@H]2CC[C@H](O)CC2)c2nc(-n3cnc4ccc(F)cc43)nc(N3CC[C@H](F)C3)c21
pIC50 (Jak3 [6]): > 7.00

N#Cc1ccc2ncn(-c3nc(N4CCCC(O)CC4)c4[nH]c(=O)n(C5CCOCC5)c4n3)c2c1 (centres unmarked)
pIC50 (Jak3 [6]): > 7.00

Cn1c(=O)n([C@H]2CC[C@H](O)CC2)c2nc(-n3cnc4ccc(F)cc43)nc(N3CC[C@@H](F)C3)c21
pIC50 (Jak3 [6]): > 7.00

NC(=O)c1nc(-n2cnc3ccc(F)cc32)nc2c1[nH]c(=O)n2C1CCOc2ccccc21 (centres unmarked)
pIC50 (Jak3 [6]): > 7.00

CN1CCCN(c2nc(-n3cnc4ccc(Cl)cc43)nc3c2[nH]c(=O)n3C2CCOCC2)CC1
pIC50 (Jak3 [6]): > 7.00
